Where two headings read alike, the source gives them in different places.
Key:
[1] = test system: guinea-pig papillary muscle; experiment: Electrophysiological test: action potential of guinea-pig papillary muscle (microelectrode technique); settings: for minimal effective concentration: Cavia porcellus; for TIME 1 (Shortest time needed to attain suppression) / TIME 2 (Shortest time needed for reversal of effect by washing out of compound): at the listed bath concentration; for DEGREE OF SUPPRESSION: suppression of action potential at the listed bath concentration
Experimental: Electrophysiological studies were conducted on guinea-pig papillary muscle.
Using a microelectrode technique, action potentials were measured from guinea-pig papillary muscles. Action potentials were evoked by electrical stimulation (platinum electrode, Grass S88 stimulator, 1 Hz stimulation frequency; voltage, 10% above threshold). […] The preparations were electrically driven (pacing intervals 1 s, duration 2-5 ms). Slow (Ca2+ mediated) action potentials were evoked in a depolarizing solution (22 mmol/l K and 5 mmol/I Ca^2+) at 0,35 Hz stimulation frequency in order to ensure complete removal of inactivation of slow inward current.

[2] = test system: isolated rabbit ear preparation; experiment: Rabbit ear perfusion test (adrenaline-induced tone, perfusion pressure)
Experimental: Female New Zealand White rabbits (approximately 4kg) were anaesthetised with Sagatal ® (0.5ml/kg).
The central ear artery was cannulated using a 20 G catheter and the ear cut off at its base. Heparinised (5ml, 200 IU;ml) Krebs bicarbonate solution was perfused through the ear to expel the blood. The ear was placed in a warming jacket at 37°C and attached via the arterial catheter to the perfusion pump. Perfusion of the ear with aerated (95% 025% C02)Krebs bicarbonate solution at 37° C was commenced at a rate of 6.5ml/min using a Watson Marlow peristaltic pump. The perfusion pressure was monitored continuously using a pressure transducer (Type 4-327-1221, Consoliated Electrodynamics) coupled to a Devices Recorder.
Following an equilibration period of 15 minutes, increased tone was induced in the preparation by addition of adrenaline (1µg/ml) to the perfusion fluid.
After a stable tone was observed, various concentrations of test compounds were injected into the perfusion fluid and examined for their effect on the perfusion pressure. The effect of vehicle (0.2ml, 50% Krebs 50% ethanol) was also tested on the ear preparation.

cardiac myocytes = experiment: Calcium current blockade in cardiac myocytes (voltage clamp); format: cell-based, guinea-pig; settings: voltage clamp experiments of cardiac myocytes
Experimental: Ventricular myocytes were isolated from guinea-pig hearts by enzymatic dispersion of the cells using a method related to that employed by Mitra and Morad. After 5 minutes of perfusion at 37 °C on a Langendorff apparatus, the Tyrode solution was changed for a Ca-free solution for 5 minutes, after which the heart was perfused with a 40ml Ca-free solution containing 12mg collagenase (Type II, Sigma) and 10mg protease (Type XIV; Sigma). Perfusion with the soluticn containing enzymes was usually stopped within 5 minutes or as soon as dark areas appeared on the ventricles. The heart was then perfused with a Tyrode solution containing 0.8mM Ca for a few minutes, after which the ventricles were cut in small pieces and the isolated cells were shaken free in a 50ml beaker containing Tyrode solution.
Tyrode solution containing 5.4 mM KCI; 1.8 mM CaC12; 0.5 mM MgClz; 137.6 mM NaCI; 5 mM glucose and 11.6 mM HEPES. The pH was adjusted to 7.4 with NaOH. […] No change in the pH of the Tyrode solution could be measured after this addition. […]
Suction pipettes with resistance values between 2 and 5 MΩ were drawn from borosilicate glass (Jencons, H15/10) and heat polished. […] The results were recorded on magnetic tape or floppy disk. […] Calcium currents were measured as the difference between the maximum slow inward current and the current recorded after 400 ms.

[3] = test system: spontaneously hypertensive rats (SHR ); experiment: Antihypertensive test: mean arterial pressure in spontaneously hypertensive rats; format: in vivo, rat; settings: statement in words
Experimental: The effect of Compound 3 on the mean arterial pressure was determined on spontaneously hypertensive rats (SHR ) by means of direct pressure transducing. Groups of 6 male rats of mass 210-300g were used. The average of ten pressure determinations was used. Normotensive (BD-9) rats were used as animal controls, while normal saline solution (containing some traces of polyethylene glycol and ethanol to aid in the solution of the test compounds) was used as solvent and as solvent control.
After verifying the mass of the animal, it was placed under general anaesthesia by administering 60mgikg pentobarbitone (Sagatal@) intraperitonially. The tracheal tube and carotid artery were both exposed by dissection. An intranule was introduced into the trachea as aid ventilation. The carolid artery was canalated and coupled to a pressure sensor. The sysolic, diastolic and mean arterial pressure were monitored via a Spacelab 514 patient monitor and registered on a Vitatek 551 plotter. During the experiment the exposed tissue of the rat was covered with guaze and kept damp with normal saline.
The drugs and solvent controls were administered intravenously into the dorsal penile vein after stabilization of the blood pressure (BP) had occurred. After drug administration, the BP was recorded every 5 minutes for a period of 30 min.

Compound: CCCCCCCCNC12OC3C4C5CC(C6C5C3C61)C42 (racemic) [Compound 3, 8-η-Octylamino-8,11-oxopentacyclo[5.4.0 .0^2,6.0^3,10.0^5,9]undecane]
- minimal effective concentration ([1]; read-out: BATH CONCENTRATION (Lowest concentration of the compound to induce suppression of action potential), Table 3, guinea-pig papillary muscle): 62.5 µM
- minimal effective concentration ([1]; read-out: BATH CONCENTRATION (Lowest concentration of the compound to induce suppression of action potential), Table 4, racemates and optical isomers): 62.5 µM
- TIME 1 (Shortest time needed to attain suppression) ([1]; Table 3): 6 min
- TIME 2 (Shortest time needed for reversal of effect by washing out of compound) ([1]; Table 3): 6 min
- DEGREE OF SUPPRESSION ([1]; Table 3): complete
- TIME 1 (Shortest time needed to attain suppression) ([1]; Table 4): 6 min
- TIME 2 (Shortest time needed for reversal of effect by washing out of compound) ([1]; Table 4): 6 min
- DEGREE OF SUPPRESSION ([1]; Table 4): complete
- inhibition at 0.01 mg ([2]; Oryctolagus cuniculus, Table 5, dose 10 µg, read-out: Mean % change in perfusion pressure): 8.5%
- inhibition at 0.0316 mg ([2]; Oryctolagus cuniculus, Table 5, dose 31.6 µg, read-out: Mean % change in perfusion pressure): 11.5%
- inhibition at 0.1 mg ([2]; Oryctolagus cuniculus, Table 5, dose 100 µg, read-out: Mean % change in perfusion pressure): 16.5%
- inhibition at 0.316 mg ([2]; Oryctolagus cuniculus, Table 5, dose 316 µg, read-out: Mean % change in perfusion pressure): 26%
- inhibition at 1 mg ([2]; Oryctolagus cuniculus, Table 5, dose 1000 µg, read-out: Mean % change in perfusion pressure): 41%
- inhibition at 0.01 mg ([2]; Oryctolagus cuniculus, Table 6, dose 10 μg, read-out: Corrected mean % change in perfusion pressurre): 5.5%
- inhibition at 0.0316 mg ([2]; Oryctolagus cuniculus, Table 6, dose 31.6 μg, read-out: Corrected mean % change in perfusion pressurre): 5.5%
- inhibition at 0.1 mg ([2]; Oryctolagus cuniculus, Table 6, dose 100 μg, read-out: Corrected mean % change in perfusion pressurre): 11.5%
- inhibition at 0.316 mg ([2]; Oryctolagus cuniculus, Table 6, dose 316 μg, read-out: Corrected mean % change in perfusion pressurre): 20.5%
- inhibition at 1 mg ([2]; Oryctolagus cuniculus, Table 6, dose 1000 μg, read-out: Corrected mean % change in perfusion pressurre): 34.5%
- inhibition at 0.0316 mg ([2]; Oryctolagus cuniculus, Table 7, dose 31.6 μg, read-out: Mean % change in perfusion pressure): 9.4%
- inhibition at 0.1 mg ([2]; Oryctolagus cuniculus, Table 7, dose 100 μg, read-out: Mean % change in perfusion pressure): 17.3%
- inhibition at 0.316 mg ([2]; Oryctolagus cuniculus, Table 7, dose 316 μg, read-out: Mean % change in perfusion pressure): 24.7%
- inhibition at 1 mg ([2]; Oryctolagus cuniculus, Table 7, dose 1000 μg, read-out: Mean % change in perfusion pressure): 28.9%
- inhibition at 3.16 mg ([2]; Oryctolagus cuniculus, Table 7, dose 3160 μg, read-out: Mean % change in perfusion pressure): 27.6%
- Mean time taken to return to pre-dose volume ([2]; Table 5, dose 31.6 µg): 1.75 min
- Mean time taken to return to pre-dose volume ([2]; Table 5, dose 100 µg): 4.25 min
- Mean time taken to return to pre-dose volume ([2]; Table 5, dose 316 µg): 5.5 min
- Mean time taken to return to pre-dose volume ([2]; Table 5, dose 1000 µg): 8.75 min
- Mean time to return to predose value ([2]; Table 6, dose 100 μg): 4.25 min
- Mean time to return to predose value ([2]; Table 6, dose 316 μg): 7.0 min
- Mean time to return to predose value ([2]; Table 6, dose 1000 μg): 10.5 min
- Mean time taken to return to predose volume ([2]; Table 7, dose 31.6 μg): 6.3 min
- Mean time taken to return to predose volume ([2]; Table 7, dose 100 μg): 6.3 min
- Mean time taken to return to predose volume ([2]; Table 7, dose 316 μg): 8.5 min
- Mean time taken to return to predose volume ([2]; Table 7, dose 1000 μg): 19.3 min
- Mean time taken to return to predose volume ([2]; Table 7, dose 3160 μg): 15.0 min
- block of the calcium current (cardiac myocytes): pronounced frequency dependent block
- Antihypertensive activity [3]: Antihypertensive activity has also been obtained

Reference: patent publication EP0312245A2, “Polycyclic compounds and pharmaceutical compositions thereof” (NORISTAN HOLDINGS LIMITED, priority 1987, dated 1989)
